The results in this text go back to ChEMBL document CHEMBL1129090, “Potent fluoromethyl ketone inhibitors of recombinant human calpain I” (Bioorg Med Chem Lett, 1996).

*1 amine or outer side, *2 acyl side, *3 side chain or, on linkers, in order; H or OH if unused. Where a SMILES comes first, the peptide text is derived from it. [ ]: non-standard residue; d: D form. The star is where a group is joined. ξ: configuration not given here. ξF = NC(Cc1ccccc1)C(=O)O; Cbz = O=C(OCc1ccccc1)*; Boc = CC(C)(C)OC(=O)*; CO = O=C([*:1])[*:2]; NHBn = c1ccc(CN*)cc1; ξAbu = CCC(N)C(=O)O; CH2F = FC*

The target in this test is T1, Calpain-1 catalytic subunit (Homo sapiens) (UniProt P07384).
T1 sequence (whole entry): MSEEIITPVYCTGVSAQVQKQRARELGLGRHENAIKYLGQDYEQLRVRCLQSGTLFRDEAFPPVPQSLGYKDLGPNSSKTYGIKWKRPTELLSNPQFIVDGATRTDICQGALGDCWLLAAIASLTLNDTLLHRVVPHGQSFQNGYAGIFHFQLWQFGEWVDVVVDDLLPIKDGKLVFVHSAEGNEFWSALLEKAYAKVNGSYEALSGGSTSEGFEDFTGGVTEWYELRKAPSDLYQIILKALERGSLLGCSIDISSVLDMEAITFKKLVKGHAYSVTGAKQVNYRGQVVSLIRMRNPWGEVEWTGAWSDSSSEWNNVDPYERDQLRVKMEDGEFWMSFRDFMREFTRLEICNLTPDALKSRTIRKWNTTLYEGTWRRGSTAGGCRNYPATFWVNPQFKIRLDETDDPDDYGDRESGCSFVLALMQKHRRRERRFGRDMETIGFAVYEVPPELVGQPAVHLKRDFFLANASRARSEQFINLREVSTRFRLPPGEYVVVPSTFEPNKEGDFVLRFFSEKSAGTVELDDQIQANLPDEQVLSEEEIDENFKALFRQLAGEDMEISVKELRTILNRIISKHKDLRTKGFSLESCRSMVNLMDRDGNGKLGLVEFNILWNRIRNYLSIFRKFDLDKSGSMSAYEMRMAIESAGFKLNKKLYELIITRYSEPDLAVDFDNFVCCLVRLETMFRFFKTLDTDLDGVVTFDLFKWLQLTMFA
Briefly: Compound was tested for inhibitory activity against recombinant human Calpain 1.

As for `CC(C)C[C@H](NC(=O)[C@H]1O[C@@H]1C(=O)O)C(=O)NCCCCN=C(N)N`, the K obs / 1 is 4700 M⁻¹ s⁻¹.

Consider `CC(C)C[C@H](NS(=O)(=O)N1CCOCC1)C(=O)NC(Cc1ccccc1)C(=O)CF` (stereo partly specified), for which the K obs / 1 was found to be 67200 M⁻¹ s⁻¹. In the case of `CC(C)C[C@H](NC(=O)OC(C)(C)C)C(=O)NC(Cc1ccccc1)C(=O)CF` (stereo partly drawn) (Boc-Leu-[ξF]-CH2F), the K obs / 1 came out at 68600 M⁻¹ s⁻¹. With `CCC(NC(=O)[C@H](CC(C)C)NC(=O)OCc1ccccc1)C(=O)CF` (stereo partly drawn) (Cbz-Leu-[ξAbu]-CH2F), the K obs / 1 is 24200 M⁻¹ s⁻¹. On to `CC(C)C[C@H](NC(=O)OCc1ccccc1)C(=O)NC(Cc1ccccc1)C(=O)CF` (stereo partly drawn) (Cbz-Leu-[ξF]-CH2F), for which the K obs / 1 was 136000 M⁻¹ s⁻¹.

With `CC(C)C[C@H](NC(=O)NCc1ccccc1)C(=O)NC(Cc1ccccc1)C(=O)CF` (stereo partly specified) ({NHBn-CO}-Leu-[ξF]-CH2F), the K obs / 1 came to 67200 M⁻¹ s⁻¹.
